Change in fluorescence data for one compound are collected here from patent US20140335184A1, “NANOPARTICLE ASSEMBLY, PREPARATION THEREOF, AND ACTIVE MATERIAL DELIVERING COMPOSITE COMPRISING THE SAME” (priority 2012, published 2014).

The data set in a line: Measurement of decrease in fluorescence of drug delivering composite. The class given is physicochemical. As to conditions: measured as a function of time, FIGS. 16A and 16B. From the text:
FIGS. 16A and 16B are graphs illustrating a measurement of a decrease in a fluorescence of the drug delivering composite prepared in Example 6.
FIG. 16A is a graph illustrating the measurement of a change in fluorescence of a doxorubicin solution according to time, and FIG. 16B is a graph illustrating the measurement of changes in fluorescence of the doxorubicin solution and the drug delivering composite according to an embodiment. […] However, a reduction in fluorescence of doxorubicin alone was not observed when measured as a function of time.

`COc1cccc2c1C(=O)c1c(O)c3c(c(O)c1C2=O)C[C@@](O)(C(=O)CO)C[C@@H]3O[C@H]1C[C@H](N)[C@H](O)[C@H](C)O1` [doxorubicin]: the Change in fluorescence entry is on record as “not observed”.
